Results from patent publication US20260137682A1, “METHOD FOR TREATING PNEUMOCONIOSIS” (Beijing Tide Pharmaceuticals Co., Ltd., priority 2022, published 2026).

Assays:
Assay type in all cases: in vivo
silicosis model mice [1] = test: Pulmonary function indices in SiO2-induced silicosis model mice; conditions: oral, 28 days, 2 h after final administration, vs model group
Protocol: (§1) After acclimatization, 6-8-week-old male C57BL/6J mice were intratracheally instilled 40 μL of SiO2 suspension (600 mg/kg) on Day 1 (D1) to establish the silicosis model. On the same day (D1), the animals were randomly divided into 3 groups based on body weight and administered either the vehicle (model group) or Compound 007 (100 mg/kg or 150 mg/kg, once daily) via oral gavage for 28 consecutive days. A normal control group was also established, intratracheally instilled 40 μL of saline on D1 and orally administered sterile water.
Two hours after the final administration, mouse pulmonary function indices were measured.

TGF-β = TGF-β detection in BALF of silicosis model mice; conditions: oral, 28 days, vs model group
Protocol: as §1
After the administration was completed, the animals were euthanized, and bronchoalveolar lavage fluid (BALF) was collected from randomly selected animals in each group for TGF-β detection.

silicosis model mice [2] = test: Silicotic nodule scoring (Masson's Trichrome staining, King's five-point scale) in lung of silicosis model mice; conditions: 28 days; for silica-induced nodule formation and collagen fiber deposition: oral, Masson's Trichrome staining; for Silicotic Nodule Score (Mean ± SEM): oral gavage, score 0 to 5, model group 1.08 ± 0.27
Protocol: as §1
Lung tissues from all mice were collected, sectioned, and subjected to Masson's Trichrome staining and H&E staining for silicotic nodule scoring and inflammation scoring. Silicotic nodule scoring was performed using the King's five-point scale [Zhujie Cao, et al., Acta Pharmacologica Sinica, 2021], where the severity of silicotic nodules in lung tissue was scored from 0 to 5, with higher scores indicating more severe nodulation. H&E pathological scoring followed Szapiel's inflammation scoring criteria, where the degree of inflammatory cell infiltration in lung tissue was scored from 0 to 3, with higher scores indicating greater inflammation in the lung tissue (0: no inflammation or alveolitis: 1: mild, mononuclear cell infiltration with thickened alveolar septa, localized involvement, pleural lesions involving less than 20% of the lung, and well-preserved alveolar structure; 2: moderate, more extensive alveolitis involving 20%-50% of the lung, primarily pleural lesions; 3: severe, diffuse alveolitis involving over 50% of the lung, occasionally with mononuclear cell infiltration in the alveoli and interstitium and/or some hemorrhagic areas within the alveoli).

silicosis model mice [3] = test: Inflammation scoring (H&E staining, Szapiel's criteria) in lung tissue of silicosis model mice; conditions: oral gavage, 28 days, score 0 to 3, model group 2.22 ± 0.28
Protocol: as §1
Lung tissues from all mice were collected, sectioned, and subjected to Masson's Trichrome staining and H&E staining for silicotic nodule scoring and inflammation scoring. Silicotic nodule scoring was performed using the King's five-point scale [Zhujie Cao, et al., Acta Pharmacologica Sinica, 2021], where the severity of silicotic nodules in lung tissue was scored from 0 to 5, with higher scores indicating more severe nodulation. […]

silicosis model mice [4] = test: Mortality during 28-day dosing in silicosis model mice; conditions: 100 mg/kg or 150 mg/kg once daily, oral gavage, 28 consecutive days
Protocol: as §1

SMILES: Cn1c(C(=O)N2CC(F)(F)C2)cc2ccc(-c3nccc(Nc4ccc(-c5cn[nH]c5)cc4)n3)cc21 [Compound 007]
- inspiratory capacity (silicosis model mice [1]; 100 mg/kg daily, p<0.05): significantly increased
- respiratory system elastance (silicosis model mice [1]; 100 mg/kg daily, p<0.05): decreased
- respiratory system resistance (silicosis model mice [1]; 100 mg/kg daily, p<0.05): reduced
- inspiratory capacity (silicosis model mice [1]; 150 mg/kg daily, p<0.01): significantly increased
- respiratory system elastance (silicosis model mice [1]; 150 mg/kg daily, p<0.05): decreased
- respiratory system resistance (silicosis model mice [1]; 150 mg/kg daily, p<0.05): reduced
- TGF-β levels in BALF (TGF-β; 100 mg/kg daily, p<0.001): significantly reduced
- TGF-β levels in BALF (TGF-β; 150 mg/kg daily, p<0.0001): significantly reduced
- silica-induced nodule formation and collagen fiber deposition (silicosis model mice [2]; 100 mg/kg daily): reduced
- Silicotic Nodule Score (Mean ± SEM) (silicosis model mice [2]; 100 mg/kg once daily): 0.32 ± 0.06
- silica-induced nodule formation and collagen fiber deposition (silicosis model mice [2]; 150 mg/kg daily): reduced
- Silicotic Nodule Score (Mean ± SEM) (silicosis model mice [2]; 150 mg/kg once daily): 0.35 ± 0.09
- Inflammation Score (Mean ± SEM) (silicosis model mice [3]; 100 mg/kg once daily): 1.22 ± 0.15
- Inflammation Score (Mean ± SEM) (silicosis model mice [3]; 150 mg/kg once daily): 1.22 ± 0.22
- mortality during the dosing period (silicosis model mice [4]): No mortality was observed
